Measurements as given in BindingDB's records for doi:10.1016/j.chembiol.2011.02.011 (University of Oklahoma, 2011).
Where a SMILES comes first, the peptide text is derived from it. [ ]: non-standard residue; d: D form. The star is where a group is joined. ξ: configuration not given here. ξR = N=C(N)NCCCC(N)C(=O)O; βNA = c1ccc2cc(N*)ccc2c1

Biological target: T1, Multidrug efflux pump subunit AcrB (Escherichia coli (strain B / BL21-DE3), UniProt P31224)
T1 sequence (P31224 whole entry): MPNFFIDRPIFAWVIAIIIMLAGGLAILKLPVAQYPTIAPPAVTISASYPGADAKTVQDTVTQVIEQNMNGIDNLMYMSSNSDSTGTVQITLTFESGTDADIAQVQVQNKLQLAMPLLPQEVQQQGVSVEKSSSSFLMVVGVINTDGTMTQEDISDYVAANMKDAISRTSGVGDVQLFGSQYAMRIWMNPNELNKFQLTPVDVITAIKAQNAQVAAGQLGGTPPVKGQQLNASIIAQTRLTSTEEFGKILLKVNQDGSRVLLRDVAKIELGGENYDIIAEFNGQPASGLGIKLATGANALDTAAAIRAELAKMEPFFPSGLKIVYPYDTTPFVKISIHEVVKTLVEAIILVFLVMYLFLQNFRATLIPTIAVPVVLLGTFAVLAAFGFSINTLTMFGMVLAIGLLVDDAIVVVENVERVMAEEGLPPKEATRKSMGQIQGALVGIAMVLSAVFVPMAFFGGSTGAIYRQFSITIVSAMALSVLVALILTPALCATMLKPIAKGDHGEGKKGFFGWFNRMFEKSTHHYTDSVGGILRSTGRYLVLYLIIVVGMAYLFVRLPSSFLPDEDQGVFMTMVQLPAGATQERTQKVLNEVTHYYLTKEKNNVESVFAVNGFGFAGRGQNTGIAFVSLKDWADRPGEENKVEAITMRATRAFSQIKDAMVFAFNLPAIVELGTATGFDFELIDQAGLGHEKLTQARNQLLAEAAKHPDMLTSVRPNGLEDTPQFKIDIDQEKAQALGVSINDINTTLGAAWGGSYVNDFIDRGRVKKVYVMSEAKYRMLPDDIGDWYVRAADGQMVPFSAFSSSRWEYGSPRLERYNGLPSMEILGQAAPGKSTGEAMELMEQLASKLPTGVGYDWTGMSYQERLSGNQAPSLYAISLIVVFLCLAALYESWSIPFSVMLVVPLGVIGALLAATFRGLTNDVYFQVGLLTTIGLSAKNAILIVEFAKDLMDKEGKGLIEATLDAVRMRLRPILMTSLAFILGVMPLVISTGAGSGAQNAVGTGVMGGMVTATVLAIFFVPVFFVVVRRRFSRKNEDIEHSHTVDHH
Experiment: Binding Assay
Text: Binding of inhibitors and substrates to immobilized AcrB.

Kd (pH 6) [µM] | Compound | Kd (pH 7.5) [µM]
– | CO[C@@H]1[C@@H](OC(N)=O)[C@@H](O)[C@H](Oc2ccc3c(O)c(NC(=O)c4ccc(O)c(CC=C(C)C)c4)c(=O)oc3c2C)OC1(C)C [Coumarin-Based, DNA Gyrase Inhibitor] | 530
110 | NC(N)=NCCCC(NC(=O)[C@@H](N)Cc1ccccc1)C(=O)Nc1ccc2ccccc2c1 (stereo partly drawn) [MC-207,110] (H-Phe-[ξR]-βNA) | 590
